Test results: patent publication US20060194845A1, “Use of ALK 5 inhibitors to modulate or inhibit myostatin activity leading to increased lean tissue accretion in animals” (Schering Corporation, priority 2004, published 2006)

Test system: rats
Experiment: Effect of Compound A on lean and fat tissue content in rats (Molecular Resonance Imaging)
Format: in vivo, rat
Details: 10 mg/kg in feed
Method: Ten animals were treated with Compound A and a second group of ten animals served as a control group. Baseline values, in grams, of lean and fat tissue were assessed using […] Resonance Imaging technology for all animals.

NC(=O)c1ccc(-c2nc(-c3ccc4c(c3)OCO4)c(-c3ccccn3)[nH]2)cc1 [Compound A]
fat content vs control (observation in words): slight trend towards decreased fat content | Fat (g) Δ (change in grams of tissue from baseline) (21 days): 50.6 g | Lean (g) Δ (change in grams of tissue from baseline) (21 days): 93.7 g | Fat (g) Δ (change in grams of tissue from baseline) (39 days): 73.6 g | increase in lean tissue compared to the control group (39 days, 137.8 vs. 115.3, p<0.0036): 19.6% | Lean (g) Δ (change in grams of tissue from baseline) (39 days, p<0.0036 vs control, 10 mg/kg): 137.8 g
